Test results reported in patent US20260241012A1, “1,8-NAPHTHYRIDIN-2-ONE HETEROBIFUNCTIONAL BCL6 DEGRADERS” (Treeline Biosciences, Inc., priority 2022, published 2026).

Molecular target: T1, N-terminal HiBiT tagged BCL6 (Homo sapiens, UniProt P41182)
T1 construct: expressed in transfected cells; host or cells: HT1080 (ATCC CCL-121), stably transduced with lentivirus pLV-UBC-N-HiBiT-BCL6-PGK-puro
Assay: HiBiT based degradation assay
Type: cell-based
Conditions: HT1080 cells expressing N-terminal HiBiT tagged BCL6, 5 hours of incubation; for Ymin (5 hr): BCL6 degradation normalized with DMSO control; for DC50: four-parameter logistic model, read-out: EC50 (5 hr)
From the text: Human BCL6 protein coding open reading frame fused with N-terminal HiBiT coding sequence was synthesized from Integrated DNA Technologies (IDT). Next, the N-HiBiT-BCL6 sequence was cloned into pLV-UBC-PGK-Puro, a lentivirus plasmid purchased from Vectorbuilder, to generate pLV-UBC-N-HiBiT-BCL6-PGK-puro. Lentiviral particles were generated from Lenti-X™ 293T cells (Clontech) by co-transfection of pLV-UBC-N-HiBiT-BCL6-PGK-puro plasmids and lentiviral packaging plasmid mix (Cellecta). HT1080 [HT1080] (ATCC CCL-121) cells were infected with the lentivirus, and HT1080 cells stably integrated with the lentiviral vectors were established by incubation with 1 μg/mL puromycin (Thermofisher).
HT1080 cells expressing N-terminal HiBiT tagged BCL6 were dispensed into a 384-well plate pre-spotted with compounds at varying concentrations. Five thousand cells were seeded into each well in 40 μL of RPMI 1640 media plus 10% Fetal Bovine Serum (10082-147, Thermofisher). After 5 hours of incubation at 37° C. with 5% CO2, 30 μL of the NANO-GLOR HiBiT Lytic Detection System working solution (Promega) was added to each well and incubated at room temperature for 15 min. After incubation, luminescence was read on a PHERAstar FSX Plate Reader (BMG). BCL6 degradation at each indicated concentration was normalized with DMSO control. The BCL6 degradation curves were plotted using a four-parameter logistic model.

Compound | Ymin (5 hr) | DC50 [nM]
CNC(=O)COc1cc2cc(Nc3nc(N4CC[C@H](CN5CCC(c6ccc7c(C8CCC(=O)NC8=O)nn(C)c7c6)CC5)[C@H](F)C4)ncc3Cl)cnc2n(C(C)C)c1=O (relative stereo) [Compound 242a, 2-((6-((5-chloro-2-((3S,4R)-4-((4-(3-(2,6-dioxopiperidin-3-yl)-1-methyl-1H-indazol-6-yl)piperidin-1-yl)methyl)-3-fluoropiperidin-1-yl)pyrimidin-4-yl)amino)-1-isopropyl-2-oxo-1,2-dihydro-1,8-naphthyridin-3-yl)oxy)-N-methylacetamide] | ++++ (Ymin < 30%) | < 10
CNC(=O)COc1cc2cc(Nc3nc(N4CC[C@@H](CN5CCC(c6ccc7c(C8CCC(=O)NC8=O)nn(C)c7c6)CC5)[C@@H](F)C4)ncc3Cl)cnc2n(C(C)C)c1=O (relative stereo) [Compound 242b, 2-((6-((5-chloro-2-((3R,4S)-4-((4-(3-(2,6-dioxopiperidin-3-yl)-1-methyl-1H-indazol-6-yl)piperidin-1-yl)methyl)-3-fluoropiperidin-1-yl)pyrimidin-4-yl)amino)-1-isopropyl-2-oxo-1,2-dihydro-1,8-naphthyridin-3-yl)oxy)-N-methylacetamide] | ++++ (Ymin < 30%) | < 10
CNC(=O)COc1cc2cc(Nc3nc(N4CC5(CC[C@H](Nc6ccc7c(C8CCC(=O)NC8=O)nn(C)c7c6)[C@@H](C)C5)C4)ncc3Cl)cnc2n(C)c1=O (single isomer, unassigned) [Compound 156a] | ++++ (Ymin < 30%) | < 10
CNC(=O)COc1cc2cc(Nc3nc(N4CC5(CC[C@@H](Nc6ccc7c(C8CCC(=O)NC8=O)nn(C)c7c6)[C@@H](C)C5)C4)ncc3Cl)cnc2n(C)c1=O (single isomer, unassigned) [Compound 156c] | ++++ (Ymin < 30%) | < 10
CNC(=O)COc1cc2cc(Nc3nc(N4CC5(CC[C@H](Oc6ccc7c(C8CCC(=O)NC8=O)nn(C)c7c6)[C@H](C)C5)C4)ncc3Cl)cnc2n(C(C)C)c1=O (single isomer, unassigned) [Compound 185a] | ++++ (Ymin < 30%) | < 10
CNC(=O)COc1cc2cc(Nc3nc(N4CCC([C@@](C)(O)C5CCN(c6cccc7c(C8CCC(=O)NC8=O)nn(C)c67)CC5)CC4)ncc3Cl)cnc2n(C(C)C)c1=O (single isomer, unassigned) [Compound 194a] | ++++ (Ymin < 30%) | 10 to 100
CNC(=O)COc1cc2cc(Nc3nc(N4CCC([C@@](C)(O)C5CCN(c6ccc7c(C8CCC(=O)NC8=O)nn(C)c7c6)CC5)CC4)ncc3Cl)cnc2n(C(C)C)c1=O (single isomer, unassigned) [Compound 201a] | ++ (50% ≤ Ymin < 70%) | < 10
CNC(=O)COc1cc2cc(Nc3nc(N4CCC([C@](C)(O)C5CCN(c6ccc7c(C8CCC(=O)NC8=O)nn(C)c7c6)CC5)CC4)ncc3Cl)cnc2n(C(C)C)c1=O (single isomer, unassigned) [Compound 201b] | +++ (30% ≤ Ymin < 50%) | < 10
CNC(=O)COc1cc2cc(Nc3nc(N4CCC([C@](C)(O)C5CCN(c6cccc7c(C8CCC(=O)NC8=O)nn(C)c67)CC5)CC4)ncc3Cl)cnc2n(C(C)C)c1=O (stereo in doubt) [Compound 194b, rel-2-((6-((5-chloro-2-(4-((1R)-1-(1-(3-(2,6-dioxopiperidin-3-yl)-1-methyl-1H-indazol-7-yl)piperidin-4-yl)-1-hydroxyethyl)piperidin-1-yl)pyrimidin-4-yl)amino)-1-isopropyl-2-oxo-1,2-dihydro-1,8-naphthyridin-3-yl)oxy)-N-methylacetamide] | +++ (30% ≤ Ymin < 50%) | 10 to 100
CNC(=O)COc1cc2cc(Nc3nc(N4CCN(CC5CCN(c6cccc7c(C8CCC(=O)NC8=O)nn(C)c67)CC5)CC4)ncc3Cl)cnc2n(C)c1=O (stereo not shown) [Compound 101, 2-((6-((5-chloro-2-(4-((1-(3-(2,6-dioxopiperidin-3-yl)-1-methyl-1H-indazol-7-yl)piperidin-4-yl)methyl)piperazin-1-yl)pyrimidin-4-yl)amino)-1-methyl-2-oxo-1,2-dihydro-1,8-naphthyridin-3-yl)oxy)-N-methylacetamide] | ++++ (Ymin < 30%) | < 10
CNC(=O)COc1cc2cc(Nc3nc(N4CCN(CC5CCN(c6cccc7c6C(=O)N(C6CCC(=O)NC6=O)C7=O)CC5)CC4)ncc3Cl)cnc2n(C)c1=O (stereo not shown) [Compound 102, 2-((6-((5-chloro-2-(4-((1-(2-(2,6-dioxopiperidin-3-yl)-1,3-dioxoisoindolin-4-yl)piperidin-4-yl)methyl)piperazin-1-yl)pyrimidin-4-yl)amino)-1-methyl-2-oxo-1,2-dihydro-1,8-naphthyridin-3-yl)oxy)-N-methylacetamide] | ++++ (Ymin < 30%) | 10 to 100
CNC(=O)COc1cc2cc(Nc3nc(N4CCN(CC5CCN(c6ccc7c(C8CCC(=O)NC8=O)nn(C)c7c6)CC5)CC4)ncc3Cl)cnc2n(C(C)C)c1=O (stereo not shown) [Compound 104, 2-((6-((5-chloro-2-(4-((1-(3-(2,6-dioxopiperidin-3-yl)-1-methyl-1H-indazol-6-yl)piperidin-4-yl)methyl)piperazin-1-yl)pyrimidin-4-yl)amino)-1-isopropyl-2-oxo-1,2-dihydro-1,8-naphthyridin-3-yl)oxy)-N-methylacetamide] | +++ (30% ≤ Ymin < 50%) | < 10

Now from value to molecule:

Ymin (5 hr) | DC50 [nM] | Compound
++++ (Ymin < 30%) | 10 to 100 | CNC(=O)COc1cc2cc(Nc3nc(N4CC[C@H](CN5CCN(c6cccc7c(C8CCC(=O)NC8=O)nn(C)c67)CC5)[C@@H](F)C4)ncc3Cl)cnc2n(C(C)C)c1=O (relative stereo) [Compound 238b, 2-((6-((5-chloro-2-((3R,4R)-4-((4-(3-(2,6-dioxopiperidin-3-yl)-1-methyl-1H-indazol-7-yl)piperazin-1-yl)methyl)-3-fluoropiperidin-1-yl)pyrimidin-4-yl)amino)-1-isopropyl-2-oxo-1,2-dihydro-1,8-naphthyridin-3-yl)oxy)-N-methylacetamide]
+++ (30% ≤ Ymin < 50%) | 10 to 100 | CNC(=O)COc1cc2cc(Nc3nc(N4CCC([C@@H](C)N5CCN(c6cccc7c(C8CCC(=O)NC8=O)nn(C)c67)CC5)CC4)ncc3Cl)cnc2n(C(C)C)c1=O (single isomer, unassigned) [Compound 193a]
++++ (Ymin < 30%) | 10 to 100 | CNC(=O)COc1cc2cc(Nc3nc(N4CCC([C@H](C)N5CCN(c6cccc7c(C8CCC(=O)NC8=O)nn(C)c67)CC5)CC4)ncc3Cl)cnc2n(C(C)C)c1=O (single isomer, unassigned) [Compound 193b]
++++ (Ymin < 30%) | 10 to 100 | CNC(=O)COc1cc2cc(Nc3nc(N4CCN([C@@H](C)C5CCN(c6cccc7c(C8CCC(=O)NC8=O)nn(C)c67)CC5)CC4)ncc3Cl)cnc2n(C(C)C)c1=O (single isomer, unassigned) [Compound 195a]
+++ (30% ≤ Ymin < 50%) | 10 to 100 | CNC(=O)COc1cc2cc(Nc3nc(N4CCN([C@H](C)C5CCN(c6cccc7c(C8CCC(=O)NC8=O)nn(C)c67)CC5)CC4)ncc3Cl)cnc2n(C(C)C)c1=O (single isomer, unassigned) [Compound 195b]
++++ (Ymin < 30%) | 10 to 100 | CNC(=O)COc1cc2cc(Nc3nc(N4CCN(CC5CCN(c6cccc7c(C8CCC(=O)NC8=O)nn(C)c67)CC5)CC4)ncc3Cl)cnc2n(C(C)C)c1=O (stereo not shown) [Compound 103, 2-((6-((5-chloro-2-(4-((1-(3-(2,6-dioxopiperidin-3-yl)-1-methyl-1H-indazol-7-yl)piperidin-4-yl)methyl)piperazin-1-yl)pyrimidin-4-yl)amino)-1-isopropyl-2-oxo-1,2-dihydro-1,8-naphthyridin-3-yl)oxy)-N-methylacetamide]
++++ (Ymin < 30%) | 10 to 100 | CNC(=O)COc1cc2cc(Nc3nc(N4CCN(CC5CCN(c6cccc7c(C8CCC(=O)NC8=O)nn(C)c67)CC5)[C@@H](C)C4)ncc3Cl)cnc2n(C(C)C)c1=O (stereo partly drawn) [Compound 105a, 2-((6-((5-chloro-2-((3S)-4-((1-(3-(2,6-dioxopiperidin-3-yl)-1-methyl-1H-indazol-7-yl)piperidin-4-yl)methyl)-3-methylpiperazin-1-yl)pyrimidin-4-yl)amino)-1-isopropyl-2-oxo-1,2-dihydro-1,8-naphthyridin-3-yl)oxy)-N-methylacetamide]
++ (50% ≤ Ymin < 70%) | < 10 | CNC(=O)COc1cc2cc(Nc3nc(N4CCN(CC5CCN(c6ccc7c(C8CCC(=O)NC8=O)nn(C)c7c6)CC5)[C@@H](C)C4)ncc3Cl)cnc2n(C(C)C)c1=O (stereo partly drawn) [Compound 106a, 2-((6-((5-chloro-2-((3S)-4-((1-(3-(2,6-dioxopiperidin-3-yl)-1-methyl-1H-indazol-6-yl)piperidin-4-yl)methyl)-3-methylpiperazin-1-yl)pyrimidin-4-yl)amino)-1-isopropyl-2-oxo-1,2-dihydro-1,8-naphthyridin-3-yl)oxy)-N-methylacetamide]
